Experimental data: PMC8228075, “In Vitro and In Silico Characterization of G-Protein Coupled Receptor (GPCR) Targets of Phlorofucofuroeckol-A and Dieckol” (Marine Drugs, 2021)
Values joined by “and” are separate entries in the source; they are usually repeats but may differ in a detail not shown here. Equal values may be shown once. Marks after values point to notes of the source that are not given here.

What was measured:
Format in all cases: cell-based
[1] = target: T1, Alpha-2C adrenergic receptor (hα2CAR) (Homo sapiens, UniProt P18825); experiment: hα2CAR functional agonist assay (cAMP, HTRF, CHO cells); details: for Agonist Effect: % of control response to 1 µM epinephrine; for EC50: agonist effect, mean ± SD, n = 3
T1 construct: host or cells: CHO cells
T1 sequence (P18825 1-462): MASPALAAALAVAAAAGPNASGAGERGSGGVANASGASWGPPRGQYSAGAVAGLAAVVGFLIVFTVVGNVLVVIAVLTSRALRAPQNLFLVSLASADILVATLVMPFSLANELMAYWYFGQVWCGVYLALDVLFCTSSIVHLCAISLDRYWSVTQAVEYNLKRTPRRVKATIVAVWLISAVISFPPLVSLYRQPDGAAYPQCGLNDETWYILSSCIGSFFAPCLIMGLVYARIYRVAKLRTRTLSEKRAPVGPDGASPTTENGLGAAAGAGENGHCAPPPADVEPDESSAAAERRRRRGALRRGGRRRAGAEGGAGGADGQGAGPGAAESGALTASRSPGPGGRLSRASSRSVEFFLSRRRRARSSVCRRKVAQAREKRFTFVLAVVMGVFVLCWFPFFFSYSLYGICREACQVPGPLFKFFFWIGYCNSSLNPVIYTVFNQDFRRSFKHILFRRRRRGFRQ
Procedure: (§1) The in-house assay protocol and experimental conditions are reported in our previous reports. The functional effect of dieckol and PFF-A was characterized based on their modulation effect on cytosolic Ca^2+ ion mobilization using a fluorimetric detection method or by measuring their effect on cAMP modulation using homogeneous time-resolved fluorescence (HTRF) detection.
(§2) Functional activity of phlorotannins over hA2AR, hα2CAR, hCB1R, GLP-1R, and h5-HT1BR was determined by measuring their effects on cAMP production by the HTRF detection method using transected cells expressing human cloned receptors.
After 10 min at 37 °C, the cells were lysed and the fluorescence acceptor (D2-labeled cAMP) and fluorescence donor (anti-cAMP antibody labeled with europium cryptate) were added.

[2] = target: T2, δ-opioid receptor (hδ-OPR) (Homo sapiens, UniProt P41143); experiment: hδ-OPR functional agonist assay (Ca2+ mobilization, rat basophil leukemia cells); details: 100 µM; % of control response to 1 µM DPDPE
T2 construct: host or cells: rat basophil leukemia cells
T2 sequence (P41143 whole entry): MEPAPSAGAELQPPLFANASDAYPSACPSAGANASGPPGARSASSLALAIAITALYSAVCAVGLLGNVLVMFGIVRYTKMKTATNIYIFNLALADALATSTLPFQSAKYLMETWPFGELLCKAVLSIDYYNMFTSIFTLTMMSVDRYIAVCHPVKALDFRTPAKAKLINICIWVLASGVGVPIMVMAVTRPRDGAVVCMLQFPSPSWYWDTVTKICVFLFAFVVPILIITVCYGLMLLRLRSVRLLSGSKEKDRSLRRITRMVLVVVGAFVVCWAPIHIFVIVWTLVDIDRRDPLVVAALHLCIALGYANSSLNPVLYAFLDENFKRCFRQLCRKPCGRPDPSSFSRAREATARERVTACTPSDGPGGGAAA
Text: as §1
(§3) Thereafter, a mixture of fluorescent probe (Fluo8, AAT Bioquest) and probenecid in HBSS buffer (Invitrogen) complemented with 20 mM Hepes (Millipore) (pH 7.4) was added and plates were incubated for 60 min at 30 °C. Then, the assay plates were positioned in a FlipR Tetra microplate reader (Molecular Device, San Jose, CA, USA) for the addition of the test compound, reference agonist/antagonist, or HBSS buffer (basal control). Change in fluorescence intensity that varies proportionally to the free cytosolic Ca^2+ ion concentration was measured.

[3] = target: T2, δ-opioid receptor (hδ-OPR); experiment: hδ-OPR functional antagonist assay (Ca2+ mobilization, rat basophil leukemia cells); details: for Antagonist Effect: 50 µM; for IC50: antagonist effect, mean ± SD, n = 3; for inhibition at 150 µM: read-out: Antagonist Effect, 150 µM
Text: as §1, §3

[4] = target: T3, Cannabinoid receptor 1 (CB1R) (Homo sapiens, UniProt P21554); experiment: hCB1R functional agonist assay (cAMP, HTRF, CHO cells); details: for Agonist Effect: % of control response to 10 nM CP 55940
T3 construct: host or cells: CHO cells
T3 sequence (P21554 whole entry): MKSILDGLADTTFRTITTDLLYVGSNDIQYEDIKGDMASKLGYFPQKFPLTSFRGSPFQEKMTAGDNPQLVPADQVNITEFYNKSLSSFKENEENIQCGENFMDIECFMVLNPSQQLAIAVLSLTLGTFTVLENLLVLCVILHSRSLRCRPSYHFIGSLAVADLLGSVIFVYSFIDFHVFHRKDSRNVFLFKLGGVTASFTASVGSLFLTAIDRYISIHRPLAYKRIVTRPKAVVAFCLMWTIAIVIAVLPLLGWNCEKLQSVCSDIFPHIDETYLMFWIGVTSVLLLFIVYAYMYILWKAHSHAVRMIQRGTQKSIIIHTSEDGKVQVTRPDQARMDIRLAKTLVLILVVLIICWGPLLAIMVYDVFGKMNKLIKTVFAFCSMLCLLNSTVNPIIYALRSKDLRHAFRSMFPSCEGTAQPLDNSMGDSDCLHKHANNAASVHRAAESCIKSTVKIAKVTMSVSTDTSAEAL
Procedure: as §1, §2
The transfected CHO cells were suspended in HBSS buffer (Invitrogen) complemented with 20 mM HEPES (pH 7.4). […] After 30 min of incubation at 37 °C, the cells were lysed and the fluorescence acceptor (D2-labeled cAMP) and fluorescence donor (anti-cAMP antibody labeled with europium cryptate) were added.

[5] = target: T4, Free fatty acid receptor 1 (FFA1R) (GPR40) (Homo sapiens, UniProt O14842); experiment: FFA1R/GPR40 functional antagonist assay (Ca2+ mobilization, HEK-293 cells); details: HEK293, read-out: Antagonist Effect
T4 construct: host or cells: HEK-293 cells
T4 sequence (O14842 whole entry): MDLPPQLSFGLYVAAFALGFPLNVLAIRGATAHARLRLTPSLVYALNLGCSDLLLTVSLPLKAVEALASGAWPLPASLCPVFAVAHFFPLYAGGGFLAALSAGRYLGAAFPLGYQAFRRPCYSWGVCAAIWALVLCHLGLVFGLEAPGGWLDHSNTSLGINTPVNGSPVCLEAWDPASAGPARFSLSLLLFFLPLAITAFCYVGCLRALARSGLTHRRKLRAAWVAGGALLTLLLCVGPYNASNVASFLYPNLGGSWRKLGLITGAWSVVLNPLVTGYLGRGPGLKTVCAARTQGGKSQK

[6] = target: T5, Glucagon-like peptide-1 receptor (GLP-1) (Mus musculus, UniProt O35659); experiment: GLP-1R functional agonist assay (cAMP, HTRF, βTC6 cells); details: 100 µM; % of control response to 100 nM GLP-1(7–37)
T5 construct: mouse GLP-1 receptor-expressed βTC6 cells; host or cells: βTC6 cells
T5 sequence (O35659 22-463): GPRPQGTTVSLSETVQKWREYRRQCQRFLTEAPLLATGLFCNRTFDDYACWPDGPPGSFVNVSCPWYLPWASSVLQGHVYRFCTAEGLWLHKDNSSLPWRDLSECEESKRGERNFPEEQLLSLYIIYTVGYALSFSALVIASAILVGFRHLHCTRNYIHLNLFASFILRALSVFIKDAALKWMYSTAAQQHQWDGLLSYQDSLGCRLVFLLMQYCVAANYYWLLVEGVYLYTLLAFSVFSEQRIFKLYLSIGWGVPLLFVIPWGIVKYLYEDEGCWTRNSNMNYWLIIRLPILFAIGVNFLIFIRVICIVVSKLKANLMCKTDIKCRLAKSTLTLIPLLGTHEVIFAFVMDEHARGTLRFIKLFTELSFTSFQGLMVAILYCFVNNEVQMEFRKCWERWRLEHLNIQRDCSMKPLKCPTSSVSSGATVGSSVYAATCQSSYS
Procedure: as §1, §2
The HBSS buffer (Invitrogen) complemented with 20 mM HEPES (pH 7.4) and 500 µM IBMX was used to suspend and distribute the βTC6 cells at a density of 1.5x10^4 cells/well. The plate was then incubated for 10 min at RT in the presence of HBSS (basal and stimulated control), the test compound, or the reference agonist and antagonist. […] Following incubation, the cells were lysed and the fluorescence acceptor (D2-labeled cAMP) and fluorescence donor (anti-cAMP antibody labeled with europium cryptate) were added.

[7] = target: T6, Vasopressin 1A receptor (hV1AR) (Homo sapiens, UniProt P37288); experiment: hV1AR functional antagonist assay (Ca2+ mobilization, CHO-V1AR cells); details: for Antagonist Effect: % inhibition of control response to 10 nM AVP; for IC50: antagonist effect, mean ± SD, n = 3
T6 construct: host or cells: CHO-V1AR cells
T6 sequence (P37288 whole entry): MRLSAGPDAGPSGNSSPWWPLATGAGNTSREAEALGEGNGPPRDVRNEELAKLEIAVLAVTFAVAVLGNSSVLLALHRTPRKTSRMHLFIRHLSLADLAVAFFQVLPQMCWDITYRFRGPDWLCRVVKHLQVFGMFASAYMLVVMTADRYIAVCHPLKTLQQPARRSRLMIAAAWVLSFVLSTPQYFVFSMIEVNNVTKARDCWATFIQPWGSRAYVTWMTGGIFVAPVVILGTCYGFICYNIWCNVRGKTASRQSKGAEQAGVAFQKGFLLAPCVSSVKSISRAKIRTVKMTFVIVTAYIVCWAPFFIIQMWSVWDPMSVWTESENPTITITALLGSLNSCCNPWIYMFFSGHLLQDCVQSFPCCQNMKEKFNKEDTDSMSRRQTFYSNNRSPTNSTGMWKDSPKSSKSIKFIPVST
Text: as §1
Then, fluorescent probe (Fluo4, Invitrogen) mixed with probenecid in HBSS buffer (Invitrogen, Carlsbad, CA, USA) supplemented with 20 mM HEPES, pH 7.4 (Invitrogen) was added to each well, allowing to equilibrate with the cells for 60 min at 37 °C, then 15 min at 22 °C.

[8] = % inhibition of control response to 25 nM DPDPE
[9] = 50 µM, dieckol value flagged as apparent inhibition (at least 25% agonist effect)
[10] = 100 µM, values flagged as apparent inhibition (at least 25% agonist effect)

SMILES | Agonist Effect ([1]; 100 µM) [%] | EC50 [1] [µM] | Agonist Effect [2] [%] | Antagonist Effect [3, 8] [%] | IC50 [3] [µM] | inhibition at 150 µM [3, 8] [%] | Agonist Effect ([4]; 100 µM) [%] | inhibition at 100 µM [5] [%] | Agonist Effect [6] [%] | Antagonist Effect [7, 9] | Antagonist Effect [7, 10] | IC50 [7] [µM] | inhibition at 100 µM ([7]; read-out: Antagonist Effect) [%] | inhibition at 150 µM ([7]; read-out: Antagonist Effect) [%] | also measured
Oc1cc(O)cc(Oc2c(O)cc(O)c3c2Oc2c(O)cc(Oc4c(O)cc(Oc5c(O)cc(O)c6c5Oc5c(O)cc(O)cc5O6)cc4O)cc2O3)c1 [Dieckol, dieckol] | 52.4 ± 4.24 | 98.8 ± 7.71 | −5.7 ± 0.14 | 23.23 ± 4.04 | 80.5 ± 13.7 | 100 ± 1.53 | −23.3 ± 12.09 | 22.6 ± 5.44 | −16.3 ± 1.13 | 41.53 ± 7.39 ^c % | 57.77 ± 0.32 ^b % and 57.77 ± 0.32 ^c % | 82.7 ± 8.73 | 57.77 ± 0.32 | 68.8 ± 0.85 | Agonist Effect ([1]; 150 µM): 73.0 ± 6.42%; Agonist Effect ([1]; 200 µM): 74.77 ± 6.60%; inhibition at 100 µM ([3]; read-out: Antagonist Effect, 100 µM, % inhibition of control response to 25 nM DPDPE): 67 ± 0.92%
Oc1cc(O)cc(Oc2c(O)cc(O)c3c2Oc2c(O)cc4oc5c(Oc6cc(O)cc(O)c6)c(O)cc(O)c5c4c2O3)c1 [PFF-A, phlorofucofuroeckol-A] | 83.8 ± 0.07 | 23.7 ± 3.32 | 14.7 ± 7.35 | 89.03 ± 0.70 | < 50 | 93.7 ± 6.67 | 113.8 ± 3.68 | 30.1 ± 0.78 | −15.5 ± 2.55 | 52.80 ± 8.09% | 56.90 ± 5.37 ^c % | 42.25 ± 0.41 | 56.9 ± 5.37 | 56.1 ± 4.72 | Agonist Effect ([1]; 12.5 µM): 22.03 ± 6.61%; Agonist Effect ([1]; 25 µM): 55% and 55.0 ± 9.13%; Agonist Effect ([1]; 50 µM): 62.27 ± 6.53%; Agonist Effect ([4]; 12.5 µM): 46.7% and 46.7 ± 6.22%; Agonist Effect ([4]; 25 µM): 80.3% and 80.3 ± 4.10%; Agonist Effect ([4]; 50 µM): 96.45% and 96.45 ± 5.02%; EC50 ([4]; agonist effect, mean ± SD, n = 3): 13.4 ± 2.03 µM; Antagonist Effect ([7]; 100 µM, values flagged as apparent inhibition (at least 25% agonist effect), listed as Phlorofucofuroeckol-A): 56.90 ± 5.37 ^b %; inhibition at 25 µM ([7]; read-out: Antagonist Effect): 35.7 ± 3.88%
